Results: patent US6927223B1, “Use of serotonin agents for adjunct therapy in the treatment of cancer” (priority 2000, dated 2005)
Entries after “also recorded” stand apart in the source; their conditions may differ.

Tests used:
B16F10 melanoma cells = conditions: cited from earlier work; for tumor lung colonization (wet weight of tumor aggregates) versus saline controls: fluoxetine 12, 16, 20 or 40 mg/m^2, amitriptyline 30, 60 or 75 mg/m^2, from 24 hours after i.v. inoculation; for median survival: tumor cells injected i.v., all groups
B16BL6 melanoma = assay: Established subcutaneous B16BL6 melanoma in water- or ethanol-drinking C57BL6 mice: tumor growth, metastasis, body weight, intake, body fat; conditions: for Perigonadal Fat (mg ± SE): necropsy; for Carcass Fat (% ± SE): weight of lipid/dry carcass weight x 100
Procedure: In an effort to approximate the effect of SSRIs on melanomas in clinical situations, administration of the agents began after tumor growth was apparent.
Fourteen to 16 C57BL6 mice per group were inoculated s.c. with 1×10^6 B16BL6 melanoma cells. […] The test agent and saline control were injected daily subcutaneously (s.c.) into the gluteal region opposite from the site of tumor inoculation, approximately two hours before the dark cycle. […] At 21 days the animals were sacrificed.
Female C57/BL6 mice consumed either water or 20% w/v ethanol ad libitum for six weeks prior to inoculation with of melanoma cells. The mice were injected with 1×10^6 tumor cells subcutaneously (s.c.) into the dorsal hip.
Two weeks after inoculation, the animals were divided into four treatment groups: (1) water drinking or (2) ethanol drinking, both groups injected with saline control for seven days; (3) water drinking or (4) ethanol drinking. […] Tumor growth was measured with calipers on days 14, 16, 18, and 20. Mice were killed on day 21 and necropsied.
Perigonadal and carcass fat were determined. Body weight, food consumption, and fluid-consumption were measured continually throughout the experiment.
Perigonadal fat, a measure of body fat content, was removed at necropsy and weighed. Mice were then dehydrated at 60° C. until they reached constant weight. They were then pulverized in a Bel-Art Micro-Mill. The whole carcass was transferred to a soxhlet extractor and the lipid was extracted with chloroform:methanol (2:1) for 24 hours. The extraction cone containing the carcass was removed, air-dried to evaporate the chloroform and methanol, and then weighed. The difference in weight was the weight of carcass lipid. The percentage of carcass lipid was calculated as the weight of lipid/dry carcass weight×100.

3T3 adipocytes = assay: Lipid accumulation in adipocytes differentiated from NIH 3T3 fibroblasts, Oil Red-O staining; format: cell-based; conditions: 5 μM and 10 μM, 10 days
Procedure: The relative absorbance was calculated as the ratio of absorbance of each treatment to the absorbance of the nondifferentiated (Ndiff) cells.
After 10 days the lipid content was determined by staining the cells with Oil Red-O and determining the intensity of the red color in an uv spectrophotometer. Experiments were done in triplicate.

A375 melanoma cells [1] = test system: A375 melanoma cells
Procedure: (§1) Viability was assessed by the crystal violet assay. […] Values are mean±SE for three experiments. […] Values are for one experiment.
(§2) A375 and SKMel-28 cells were seeded at a density of 20,000 cells in one ml DMEM+10% FBS per well in 24 well plates and cultured for 24 hours. […] The culture plates were removed and the medium from each well was discarded. The cells were fixed with acetic acid:methanol (1:3) for one hour at room temperature. The fixed cells were washed with 80% methanol and stained with crystal violet (0.5%) for one hour. Crystal violet dye is taken up proportionately depending upon the number of cells that are adhered to the plate. Excess dye is removed by washing plates in running distilled water. After the plates were dry, the dye was solubilized in 10% acetic acid. Aliquots of solubilized dye from each well were transferred to a 96 well plate and the absorbance of the color was measured at 585 nm. The effects were compared relative to untreated controls.

SKMel-28 cells = assay: Viability of melanoma cells, crystal violet assay; format: cell-based, human; conditions: SKMel-28, preliminary data from one study
Procedure: as §1, §2

B16BL6 melanoma cells = conditions: stated jointly for B16BL6 and A375
A375 melanoma cells [2] = conditions: stated jointly for B16BL6 and A375
[3] = 10 mg/kg/day injected i.v. or continuously infused subcutaneously via pump, mice; cited from earlier work
metastatic melanoma = conditions: single agent; cited from earlier work
[4] = Ethanol-drinking mice (20% w/v), 10 mg/kg/day s.c. for 7 days
[5] = Water-drinking mice, 10 mg/kg/day s.c. for 7 days

Q: For CN(C)CCC=C1c2ccccc2CCc2ccccc21 [amitriptyline], which “tumor lung colonization (wet weight of tumor aggregates) versus saline controls” value (B16F10 melanoma cells) is on record?
A: increased tumor lung colonization

Q: What about the median survival (B16F10 melanoma cells) of the same compound?
A: 17 days

Q: With CNCCC(Oc1ccc(C(F)(F)F)cc1)c1ccccc1 (stereo not shown) [fluoxetine] as the compound, how does the tumor growth rate (B16BL6 melanoma; 10 mg/kg/day s.c. for 7 days, irrespective of water or ethanol consumption) read?
A: significantly decreased

Q: What about the “decrease in wet weight of tumors at necropsy versus saline-injected mice” value (B16BL6 melanoma; 10 mg/kg/day s.c. for 7 days, necropsy day 21) of the same compound?
A: greater than 2 fold

Q: And the “Perigonadal Fat (mg ± SE)” value (B16BL6 melanoma; [4])?
A: 192 ± 53 mg

Q: What about the “Carcass Fat (% ± SE)” value (B16BL6 melanoma; [4]) of the same compound?
A: 31.7 ± 2.3 %

Q: And the “Perigonadal Fat (mg ± SE)” value (B16BL6 melanoma; [5])?
A: 53 ± 25 mg

Q: And the “Carcass Fat (% ± SE)” value (B16BL6 melanoma; [5])?
A: 25.8 ± 1.4%

Q: What about the tumor volume (B16BL6 melanoma; daily s.c. injection from day 14 to day 21, water- and ethanol-consuming mice) of the same compound?
A: decreased tumor volume

Q: What about the “corrected body weight (total body weight minus tumor wet weight), test versus control animals” value (B16BL6 melanoma; day 21) of the same compound?
A: nearly identical

Q: And the “toxicity of the effective dose” value (B16BL6 melanoma; mouse, in vivo)?
A: non toxic

Q: And the “number and frequency of metastases” value (B16BL6 melanoma; subcutaneous B16BL6 tumors, 10 mg/kg/day s.c. for 7 days, 10 mg/kg/day)?
A: inhibit metastasis; also recorded: greatly reduced

Q: And the food intake (B16BL6 melanoma; water-drinking mice, experimental period)?
A: does not alter food intake

Q: What about the “lipid content of differentiated adipocytes” value (3T3 adipocytes) of the same compound?
A: increases lipid content

Q: What about the “cell viability at 16 μM” value (A375 melanoma cells [1]; A375, 16 μM) of the same compound?
A: almost all the cells were dead

Q: What about the “concentration at which drug toxicity is evident” value (A375 melanoma cells [1]; A375, crystal violet) of the same compound?
A: 4 µM

Q: What about the “concentration range of more pronounced toxicity” value (A375 melanoma cells [1]; A375, crystal violet) of the same compound?
A: 8 to 16 µM

Q: What about the “time within which toxicity is exerted” value (A375 melanoma cells [1]; A375 and SKMel-28, crystal violet) of the same compound?
A: ≤ 24 h

Q: What about the major toxicity range (SKMel-28 cells) of the same compound?
A: 8 to 16 µM

Q: What about the “fluoxetine level that completely inhibited the incorporation of isotope” value (B16BL6 melanoma cells) of the same compound?
A: about 30 uM

Q: What about the “fluoxetine level that completely inhibited the incorporation of isotope” value (A375 melanoma cells [2]) of the same compound?
A: about 30 uM

Q: And the approximate serum level [3]?
A: 100 to 280 ng/mL

Q: And the “tumor lung colonization (wet weight of tumor aggregates) versus saline controls” value (B16F10 melanoma cells)?
A: increased tumor lung colonization

Q: And the median survival (B16F10 melanoma cells)?
A: 17 days

Q: For CN(C)/N=N/c1[nH]cnc1C(N)=O [DTIC, dimethyltriazenoimidazole carboxymide], which “share of cases of metastatic melanoma with partial remission” value (metastatic melanoma) is on record?
A: about one-quarter
